# Data reported in US11306098B2, “Substituted pyrrolo[1,2-a]pyrazines and pyrrolo[1,2-a][1,4]diazepines as TREX1 inhibitors” (VENENUM BIODESIGN, LLC, priority 2019, dated 2022).
# Legend:
# human TREX1 = human TREX1 (Homo sapiens (Human), UniProt Q9NSU2); experiment: TREX1 Exonuclease Assay (human enzyme); type: biochemical; conditions: human TREX1 0.5 nM, FAM/BHQ1-labeled DNA oligonucleotide
# Procedure: (§1) The TREX1 Exonuclease assay is an exemplary in vitro assay for measuring the activity of the TREX1 inhibitors of the present invention. In this assay, TREX1 exonuclease activity was evaluated by measuring the increase in fluorescence resulting from TREX1-catalyzed removal of a quencher from the 3′ end of a FAM-labeled DNA oligonucleotide (5′FAM-CCA CGA GAG CGT-BHQ1-3′). The assay was conducted using Wild Type (WT) human or murine TREX1 enzyme constructs corresponding to amino acids 55-297 of UniProt ID Q9NSU2-1 (SEQ ID NO: 1), or amino acids 1-242 of UniProt ID Q91XB0-1 (SEQ ID NO: 2), respectively. See, e.g., Example A.
# (§2) For human TREX1, the nucleotide sequence of the gene construct was codon optimized for expression in the bacterial host. The sequence was incorporated into the pMAL-c5e vector (NEB) downstream of a solubility-promoting MBP (maltose binding protein) fusion partner. The fusion protein product was expressed in E. coli strain BL21 (DE3) (Millipore) and purified in a series of chromatographic steps. Initial steps were conducted using a dextrin sepharose affinity column followed by a Q-sepharose ion exchange column (both GE Healthcare). After the second column the MBP partner was removed by incubation with enterokinase (NEB). Further purification was carried out with the second application of a Q-sepharose column followed by a Superdex 75 (GE Healthcare) size exclusion column. Finally, a heparin sepharose column (GE Healthcare) was applied to remove contaminating nucleotides. Similar methods were used in the preparation of the murine TREX1 enzyme and are described in Example B set forth below.
# (§3) To evaluate the effect of compounds on TREX1 activity, test compounds were serially diluted (11-point, 3-fold) from 10 mM stock solutions and delivered to 384-well low-volume assay plates in 80 nL DMSO using an acoustic dispenser. Next, 4 μL of human TREX1 (0.5 nM), or murine TREX1 (1 nM), diluted in assay buffer (20 mM Tris pH 7.5, 5 mM MgCl2, 100 μg/mL BSA, 0.002% Triton X-100, 2 mM DTT), was added to the assay plate. After incubating for 30 minutes, 4 μL of labeled DNA oligonucleotide (500 nM) in assay buffer was added to initiate TREX1 exonuclease activity. The reaction was allowed to proceed for 45 minutes at room temperature prior to the addition of 4 μL of 150 mM EDTA to halt TREX1 activity. Assay plates were equilibrated for an additional 30 minutes and read on an EnVision Plate Reader (Perkin Elmer) to measure fluorescence emission at 535 nm following excitation at 485 nm. Fluorescence was plotted as a function of log molar compound concentration and fit to four-parameter dose-response equation to determine compound IC50.
# murine TREX1 = murine TREX1 (Mus musculus (Mouse), UniProt Q91XB0); experiment: TREX1 Exonuclease Assay (murine enzyme); type: biochemical; conditions: murine TREX1 1 nM, FAM/BHQ1-labeled DNA oligonucleotide
# Procedure: as §1, §2, §3
# cleaved human TREX1 = cleaved human TREX1 (Homo sapiens (Human), UniProt Q9NSU2); experiment: TREX1 Thermal Shift Binding Assay (human); conditions: assay buffer, 100 μM compound, 5 μM TREX1; read-out: Thermal shift cleaved human TREX1, (ΔTm ° C.) Assay buffer
# Procedure: (§4) Example B is a protein thermal shift assay used to assess the binding of TREX1 inhibitors to TREX1 protein. In this assay, TREX1 protein unfolding with increasing temperature was measured in the presence and absence of TREX1 inhibitors by following the increase in fluorescence of a thiol-reactive dye (e.g BODIPY FL-cystine) as it reacts with exposed TREX1 cysteine residues. The assay was conducted using human (SEQ ID NO: 1), or murine (SEQ ID NO: 2) TREX1 protein constructs.
# (§5) The thermal shift assays used recombinant protein corresponding to human (SEQ ID NO: 1) and murine (SEQ ID NO: 2) TREX1. The protein encoding plasmid contained a N-terminal MBP (maltose binding protein) tag followed by the TREX1 coding sequence within the pMAL-c5E vector. The plasmid was transfected into a BL21 (DE3) E. coli expression strain. Protein was purified from the bacterial lysate using an Amylose resin column. The MBP tag was cleaved from the purified protein using recombinant enterokinase (EMD Millipore #69066-3). The cleaved TREX1 protein was further purified on a Q-Sepharose column followed by a heparin column.
# (§6) Binding of compounds to both human and murine TREX1 were measured by protein thermal shift assays. (Huynh K, Partch C L. Current Protocols in Protein Science: Analysis of protein stability and ligand interactions by thermal shift assay. Current protocols in protein science/editorial board, John E Coligan. [et al]. 2015; 79:28.9.1-28.9.14. doi:10.1002/0471140864.ps2809s79.). Thermal shift assays were conducted in sealed 96-well PCR plates containing 5 μM TREX1 protein, 100 μM compound, and 2 μM BODIPY FL-cystine (Sigma) in either 20 μL assay buffer (20 mM Tris, 7.5, 5 mM MgCl2, 0.002% Triton X-100) or 20 μL phosphate buffered saline (PBS). Using a RT-qPCR machine (Mx3005P, Stratagene) changes in fluorescence (excitation at 492 nm and emission at 516 nm) were monitored as temperature was increased from 25° C. to 96° C. at a rate of 1° C. every 2 minutes. Tm values were calculated from the first derivative plot of fluorescence intensity versus temperature. The results shown in Table 6 indicate the examples bind to human TREX1 and murine TREX1. ND indicates assay was not done.
# cleaved mouse TREX1 = cleaved mouse TREX1 (Mus musculus (Mouse), UniProt Q91XB0); experiment: TREX1 Thermal Shift Binding Assay (mouse); conditions: PBS, 100 μM compound, 5 μM TREX1; read-out: Thermal shift cleaved mouse TREX1, (ΔTm ° C.) PBS
# Procedure: as §4, §5, §6
# human TREX1, sequence (Q9NSU2 1-242): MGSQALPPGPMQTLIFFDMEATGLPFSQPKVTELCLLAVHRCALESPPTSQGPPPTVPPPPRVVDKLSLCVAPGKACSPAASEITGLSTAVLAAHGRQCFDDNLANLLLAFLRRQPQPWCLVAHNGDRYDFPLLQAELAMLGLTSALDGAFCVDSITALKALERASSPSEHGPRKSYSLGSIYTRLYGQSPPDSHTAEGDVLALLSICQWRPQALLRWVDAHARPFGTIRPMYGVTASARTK
# cleaved human TREX1, sequence (Q9NSU2 1-242): as above
# murine TREX1, sequence (Q91XB0 1-242): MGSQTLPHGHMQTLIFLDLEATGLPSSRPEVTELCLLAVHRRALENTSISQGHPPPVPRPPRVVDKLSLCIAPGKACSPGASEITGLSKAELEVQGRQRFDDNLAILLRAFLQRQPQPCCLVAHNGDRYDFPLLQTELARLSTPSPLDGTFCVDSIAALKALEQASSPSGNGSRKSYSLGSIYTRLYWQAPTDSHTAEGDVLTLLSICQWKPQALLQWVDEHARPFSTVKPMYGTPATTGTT
# cleaved mouse TREX1, sequence (Q91XB0 1-242): as above
compound,measurement,setting,value
N[C@@H]1C[C@H]2C(=O)N([C@H](CCC(=O)O)C(=O)NCc3ccc(Cl)c(Cl)c3)CCC(CCc3ccccc3)N2C1 (stereo partly shown) [Example 14B],IC50,human TREX1,< 1000 nM
same,IC50,murine TREX1,< 1000 nM
same,ΔTm at 100 µM,cleaved human TREX1,> 8 °C
same,ΔTm at 100 µM,cleaved mouse TREX1,> 8 °C
